Assay results as given in US5834482A, “Heterocyclic chemistry” (Novo Nordisk A/S, priority 1995, dated 1998).
Structures can show the parent of a compound that is named as a salt. Where two headings read alike, the source gives them in different places.

Experiments:
GABA uptake carrier = target: T1, GABA uptake carrier (Rattus norvegicus, UniProt P31647); test: 3H-GABA uptake in crude membrane preparation from selected brain areas (in presence of NNC 05-0711); type: biochemical
T1 construct: A crude membrane preparation was prepared from selected brain areas; from tissue
T1 sequence (P31647 1-627): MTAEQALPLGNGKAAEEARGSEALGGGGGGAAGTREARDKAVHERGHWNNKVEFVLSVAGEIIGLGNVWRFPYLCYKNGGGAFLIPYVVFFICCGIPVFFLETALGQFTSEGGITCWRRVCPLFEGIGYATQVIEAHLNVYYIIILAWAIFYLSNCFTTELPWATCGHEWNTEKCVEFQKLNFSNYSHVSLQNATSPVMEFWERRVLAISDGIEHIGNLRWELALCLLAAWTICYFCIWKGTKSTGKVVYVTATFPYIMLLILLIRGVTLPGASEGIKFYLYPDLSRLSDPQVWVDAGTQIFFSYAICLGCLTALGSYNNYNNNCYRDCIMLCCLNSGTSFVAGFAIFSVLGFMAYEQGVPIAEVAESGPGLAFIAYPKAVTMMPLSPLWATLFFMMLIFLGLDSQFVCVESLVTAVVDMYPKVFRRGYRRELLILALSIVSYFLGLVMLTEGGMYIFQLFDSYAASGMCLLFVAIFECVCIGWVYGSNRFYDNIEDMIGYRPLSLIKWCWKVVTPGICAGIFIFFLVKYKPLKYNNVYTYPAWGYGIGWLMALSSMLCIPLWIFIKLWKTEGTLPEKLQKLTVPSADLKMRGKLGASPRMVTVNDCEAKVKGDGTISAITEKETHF
Description: ^3 H-GABA uptake was measured by a modification of the method of Fjalland et al., (1978). A crude membrane preparation was prepared from selected brain areas by homogenization in 20 ml of ice-cold 0.32M sucrose with a hand driven teflon/glass Potter-Elvehjem homogenizer. homogenate was centrifuged at 4° C. for 10 min. at 1000×g, and the pellet was discarded. The supernatant was recentrifuged at 4° C. for 20 min. at 20.000×g. The pellet was then homogenized in 50 volumes 0.32M sucrose. To 300 μl uptake-buffer ([…], 15.3 mM KCl, 6.67 mM MgSO4, 3.83 mM CaCl2, 16.67 mM glucose, 66.67 mM Tris, pH 7.5 at 30° C.) was added 1-(2-(((diphenylmethylene)amino)oxy)ethyl)-1,2,5,6-tetrahydro-3-pyridinecarboxylic acid (NNC 05-0711) (1 mM final concentration), 100 μl test substance and 50 μl tissue suspension. The sample were mixed and incubated at 30° C. for 8 min. Then ^3 H-GABA (0.9 nM final concentration) and unlabelled GABA (25 nM final concentration) was added, and the incubation was continued for an additional 8 min. The reaction was terminated by rapid filtration through Whatman GF/F glass fiber filters under vacuum. The filters were then washed twice in 10 ml of ice-cold isotonic saline, and the tritium trapped on the filters was quantified by conventional scintillation spectroscopy. Non-GABA uptake carrier mediated uptake of ^3 H-GABA was determined in the presence of […].

GABA uptake [1] = details: cited from earlier work
GAT-1 = details: cloned GAT-1; cited from earlier work
GABA uptake [2] = details: into presynaptic nerve terminals and glial cells; cited from earlier work
[3] = in vitro, crude brain membrane preparation, 1 mM NNC 05-0711, 30° C., 8 min, 0.9 nM 3H-GABA, 25 nM unlabelled GABA, read-out: IC50 (nM) in vitro, Non-GABA uptake carrier mediated uptake of 3H-GABA

Structure (SMILES)	IC50 (GABA uptake carrier; [3]) [nM]	inhibition of GABA uptake, oral activity (GABA uptake [1])	also measured
CCc1noc(-c2cc3c4ccccc4n(CCCN4CCC(O)(c5ccccc5)CC4)c3cn2)n1 [Compound 4, 1-(3-(3-(3-Ethyl-1,2,4-oxadiazol-5-yl)-9H-β-carbolin-9-yl)-1-propyl)-4-phenylpiperidin-4-ol]	932	–	–
OC1(c2ccccc2)CCN(CCCn2c3ccccc3c3cc(-c4nc(C5CC5)no4)ncc32)CC1 [Compound 7, 1-(3-(3-(3-Cyclopropyl-1,2,4-oxadiazol-5-yl)-9H-β-carbolin-9-yl)-1-propyl)-4-phenylpiperidin-4-ol hydrochloride]	–	–	IC50 (GABA uptake carrier): 1090 nM
OC1(c2ccccc2)CCN(CCCn2c3ccccc3c3cc(-c4nc(-c5ccccc5)no4)ncc32)CC1 [Compound 10, 1-(3-(3-(3-Phenyl-1,2,4-oxadiazol-5-yl)-9H-β-carbolin-9-yl)-1-propyl)-4-phenylpiperidin-4-ol hydrochloride]	–	–	IC50 (GABA uptake carrier): 1440 nM
CCOC(=O)c1cc2c(cn1)[nH]c1ccc([N+](=O)[O-])cc12 [Compound 15, 6-Nitro-9H-β-carboline-3-carboxylic acid ethyl ester]	–	–	IC50 (GABA uptake carrier): 6380 nM
C=CCN(CC=C)c1ccc2c(c1)c1cc(-c3nc(CC)no3)ncc1n2CCCN1CCC(O)(c2ccccc2)CC1 [Compound 20, 1-(3-(3-(3-Ethyl-1,2,4-oxadiazol-5-yl)-6-dipropenylamino-9H-β-carbolin-9-yl)-1-propyl-4-phenylpiperidin-4-ol hydrochloride]	5380	–	–
CCc1noc(-c2cc3c4cc(N(C)C)ccc4n(CCCN4CCC(O)(c5ccccc5)CC4)c3cn2)n1 [Compound 24]	4690	–	–
Cc1noc(-c2cc3c4ccccc4n(CCCN4CCC(O)(c5ccccc5)CC4)c3cn2)n1 [Compound 26, 1-(3-(3-Methyl-1,2,4-oxadiazol-5-yl)-β-carbolin-9-yl)-1-propyl)-4-phenylpiperidin-4-ol hydrochloride]	1640	–	–
Cc1nc(-c2cc3c4ccccc4n(CCCN4CCC(O)(c5ccccc5)CC4)c3cn2)no1 [Compound 28, 1-(3-(5-Methyl-1,2,4-oxadiazol-3-yl)-β-carbolin-9-yl)-1-propyl)-4-phenylpiperidin-4-ol hydrochloride]	1240	–	–
O=C(O)C1CCCN(CCC=C(c2ccccc2)c2ccccc2)C1 (centres unmarked) [SK&F 89976A, N-(4,4-diphenyl-3-buten-1-yl)nipecotic acid]	–	orally active inhibitors of GABA uptake	–
O=C(O)C1=CCCN(CCC=C(c2ccccc2)c2ccccc2)C1 [SK&F 100330A, N-(4,4-diphenyl-3-buten-1-yl)guvacine]	–	orally active inhibitors of GABA uptake	–
O=C(O)CC1CCN(CCC=C(c2ccccc2)c2ccccc2)C1 (stereo not drawn) [SK&F 100561, N-(4,4-diphenyl-3-buten-1-yl)-homo-β-proline]	–	orally active inhibitors of GABA uptake	–
O=C(O)C1CCCN(CCC=C(c2ccccc2)c2cccs2)C1 (centres unmarked) [SK&F 100604J, N-(4-phenyl-4-(2-thienyl)-3-buten-1-yl)nipecotic acid]	–	orally active inhibitors of GABA uptake	–
O=C(O)C1CCCNC1 (centres unmarked) [nipecotic acid, 3-piperidinecarboxylic acid]	–	–	sensitivity of GAT-1 (GAT-1): high sensitivity; inhibition of GABA uptake from the synaptic cleft (GABA uptake [2]): potent inhibitor of GABA uptake
